Source: patent US20220259249A1, “INHIBITORS OF ANTIBIOTIC RESISTANCE MEDIATED BY ARNT” (priority 2019, published 2022)
Where two headings read alike, the source gives them in different places.

Columns and labels:
[1] = tested on: P. aeruginosa PA14 col^R 5 (colistin-resistant strain); assay: microbe, parasite or virus in culture; type: cell-based; conditions: for IC90: read-out: IC90, synergy with colistin (8 μg/ml), minimum concentration causing at least 90% growth inhibition; for antibacterial activity per se: in the absence of colistin; for inhibition of bacterial growth in the presence of colistin: colistin 8 μg/ml
Protocol: The compounds identified by in silico screening were tested for their antibacterial activity (in the absence of colistin) and for their synergistic or adjuvant activity with colistin against a colistin-resistant strain of P. aeruginosa grown in the absence or presence of a sub-inhibitory concentration of colistin (8 μg/ml).
This strain over-expresses the am genes responsible for the modification of lipopolysaccharide by the addition of L-amino-arabinose.
The strain was grown in Mueller-Hinton (MH) medium for 8 hours, and inoculated at a cell density of ˜10^6/ml in MH medium supplemented or not with colistin at a concentration of 16 μg/ml. […] The microtitration plates were incubated at 37° C. without stirring for 24 hours. Bacterial growth was assessed by measuring absorbance at 600 nm (A600) in a microplate reader (Victor 2^V, Perkin-Elmer). […] For each compound three independent experiments were conducted, and the averages of the values obtained in the three experiments are considered to determine the values of IC50 e IC90.

[2] = tested on: 16HBE cells (human epithelial cells of bronchial origin); assay: Cell viability test (MTT reduction);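 note: formazan absorbance at 570 nm after MTT reduction, corrected for cell-free blank wells, reported relative to untreated cells, from duplicate wells over three independent repeats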
Protocol: The cytotoxic potential of the compounds was evaluated on cell cultures in vitro. […] The results are reported in the table as viability (%) compared to untreated cells (Table 4).
To evaluate the cytotoxic potential of the compounds under examination, the MTT (3-(4,5-dimethylthiazol-2-yl)-2,5-diphenyltetrazolium) reduction test, commonly used to monitor cell viability was used following the exposure to potentially cytotoxic agents. The essay is based on the reduction of MTT to formazan, a compound that assumes a blue colour which can be evaluated by spectrophotometric reading at a wavelength of 570 nm. For the essay we used the 16HBE cell line. […] Each test was performed in duplicate and three independent replicas were made.
Cell viability was calculated as follows:
COD570=OD570 of sample−OD570 of wells without cells (white)
Viability=100−reduction (%)
where: NT indicates the samples of cells non-threated with the compounds; T the samples of cells treated with the compounds at the different concentrations.
The mean cell viability values were calculated using the Excel mean and standard deviation functions.

[3] = Pseudomonas aeruginosa, PA14, 24 h, read-out: IC50 without colistin
[4] = read-out: IC50, synergy with colistin (8 μg/ml), PA14 ColR5, colistin 8 μg/ml (sub-inhibitory), minimum concentration causing at least 50% growth inhibition, 24 h
[5] = PA14 ColR5, colistin 8 μg/ml (sub-inhibitory), 24 h
[6] = 16HBE, 1.95 μM, 18 hours, MTT, vs untreated cells
[7] = 16HBE, 3.91 μM, 18 hours, MTT, vs untreated cells
[8] = 16HBE, 7.81 μM, 18 hours, MTT, vs untreated cells
[9] = 16HBE, 15.63 μM, 18 hours, MTT, vs untreated cells
[10] = 16HBE, 125 μM, 18 hours, MTT, vs untreated cells
[11] = 16HBE, 250 μM, 18 hours, MTT, vs untreated cells
[12] = 16HBE, 62.5 μM, 18 hours, MTT, vs untreated cells

For `COC(=O)[C@]1(C)CCC[C@@]2(C)C3CC[C@@]4(C)C[C@]3(CCC21)CC4=O` (single isomer, unassigned; ent-16) [SR7, methyl ester of ent-16-oxo-beyeran-19-oic acid], the IC50 [1, 3] was > 250 µM, the IC50 [1, 4] was > 250 µM and the IC90 [1, 5] was > 250 µM.
For `O=C1c2c(O)cccc2[C@H]([C@@H]2O[C@H](CO)[C@@H](O)[C@H](O)[C@H]2O)c2cc(CO)cc(O)c21` [BBN36, (10S)-1,8-dihydroxy-3-(hydroxymethyl)-10-[(2S, 3R, 4R, 5S, 6R)-3,4,5-trihydroxy-6-(hydroxymethyl)oxan-2-yl]-10 H-anthracen-9-one], the IC50 [1, 3] was > 250 µM, the IC50 [1, 4] was > 250 µM and the IC90 [1, 5] was > 250 µM.
For `O=C(/C=C/c1ccc(O)c(O)c1)O[C@@H]1C[C@](O)(C(=O)O)C[C@@H](O)[C@H]1O` [BBN53, (1S, 3R, 4R, 5R)-3-[(E)-3-(3,4-dihydroxyphenyl)prop-2-enoyl]oxy-1,4,5-trihydroxycyclohexane-1-carboxylic acid], the IC50 [1, 3] was > 250 µM, the IC50 [1, 4] was > 250 µM and the IC90 [1, 5] was > 250 µM.
In the case of `O=C(CCc1ccc(O)cc1)c1c(O)cc(O)cc1O` [BBN101, 3-(4-hydroxyphenyl)-1-(2,4,6-trihydroxyphenyl)propan-1-one], the IC50 [1, 3] is reported as > 250 µM, the IC50 [1, 4] is reported as > 250 µM and the IC90 [1, 5] is reported as > 250 µM.
`COc1cc(O)c(O)c(CC=C(C)C)c1-c1coc2cc(O)cc(O)c2c1=O` [BBN118, 3-[3,4-dihydroxy-6-methoxy-2-(3-methylbut-2-enyl)phenyl]-5,7-dihydroxycromen-4-one] was tested, and the IC50 [1, 3] was > 250 µM and the IC90 [1, 5] was > 250 µM.
With `CC1(C)C=Cc2c(cc(O)c3c(=O)c4cc5c(c(O)c4oc23)OC(C)(C)C=C5)O1` [BBN119, 11,22-dihydroxy-7,7,19,19-tetramethyl-2,8,20-trioxapentacyclo [12.8.0.03,120,04,90,016,21]docosa-1(14), 3(12), 4(9), 5, 10, 15, 17, 21-octaen-13-one] the IC50 [1, 3] was > 250 µM, the IC50 [1, 4] was > 250 µM and the IC90 [1, 5] was > 250 µM.
`C=CC(C)(C)c1c2c(c3oc4c(O)c(O)ccc4c(=O)c3c1O)C(C)(C)C(C)O2` (stereo not shown) [BBN120, rheediaxanthone B] was tested, and the IC50 [1, 3] was > 250 µM and the IC90 [1, 5] was > 250 µM.
In the case of `Cc1nccc2c1[nH]c1ccccc12` [BBN135, 1-methyl-9H-pyrido[3,4-b]indole], the IC50 [1, 3] is reported as > 250 µM, the IC50 [1, 4] is reported as > 250 µM and the IC90 [1, 5] is reported as > 250 µM.
In the case of `COC(=O)C1=CO[C@@H](O[C@@H]2O[C@H](CO)[C@@H](O)[C@H](O)[C@H]2O)[C@@H]2[C@@H](C)[C@@H](O)C[C@H]12` [BBN139, methyl (1S, 4aS, 6S, 7R, 7aS)-6-hydroxy-7-methyl-1-[(2 S, 3 R, 4 S, 5S, 6R)-3,4,5-trihydroxy-6-(hydroxymethyl)oxan-2-yl]oxy-1,4a, 5,6,7,7a-haxidrocrociclopenta [c] piran-4-carboxylate], the IC50 [1, 3] is reported as > 250 µM, the IC50 [1, 4] is reported as > 250 µM and the IC90 [1, 5] is reported as > 250 µM.
With `COc1cc2ccc(=O)oc2cc1OC/C=C(\C)CCC=C(C)C` [BBN146, 6-methoxy-7-O-geranyl-coumarin] the IC50 [1, 3] was > 250 µM, the IC50 [1, 4] was > 250 µM and the IC90 [1, 5] was > 250 µM.
In the case of `CC(C)=CCc1c(O)cc2c(c1O)C(=O)[C@H](O)[C@@H](c1ccc(O)cc1)O2` [BBN147, 6-prenyl-aromadendrine], the IC50 [1, 3] is reported as > 250 µM and the IC90 [1, 5] is reported as > 250 µM.
For `CC(C)=CCc1c(O)c(C(=O)c2ccccc2)c(O)c2c1OC(C)(C)C=C2` [BBN148, [5,7-dihydroxy-2,2-dimethyl-8-(3-methylbut-2-enyl)cromen-6-yl]-phenylmethanone], the IC50 [1, 3] was > 250 µM, the IC50 [1, 4] was > 250 µM and the IC90 [1, 5] was > 250 µM.
For `O=C(O)c1cc(O)c2c(c1)C(=O)c1cccc(O)c1C2=O` [BBN152, 4,5-dihydroxy-9,10-dioxoanthracene-2-carboxylic acid], the IC50 [1, 3] was > 250 µM, the IC50 [1, 4] was > 250 µM and the IC90 [1, 5] was > 250 µM.
With `CC(C)=CCC/C(C)=C/COc1ccc(C(=O)/C=C/c2ccccc2)cc1` [BBN154, 4′-O-geranil-calcone] the IC50 [1, 3] was > 250 µM, the IC50 [1, 4] was > 250 µM and the IC90 [1, 5] was > 250 µM.
With `C[C@]12C=C[C@@]3(CCC4[C@@](C)(CO)CCC[C@@]4(C)C3CC1)C2` (stereo partly drawn) [FDA, ent-beyer-15-en-18-ol] the IC50 [1, 3] was > 250 µM, the “antibacterial activity per se” value [1] was “none of the compounds showed antibacterial activity per se” and the IC50 [1, 4] was > 250 µM. The IC90 [1, 5] was > 250 µM.
With `C[C@]12C=C[C@@]3(CCC4[C@@](C)(COC(=O)CC(=O)O)CCC[C@@]4(C)C3CC1)C2` (stereo partly drawn) [FDM, ent-beyer-15-en-18-O-malonic acid] the IC50 [1, 3] was > 250 µM, the “inhibition of bacterial growth in the presence of colistin” value [1] was “able to inhibit bacterial growth in the presence of colistin” and the “antibacterial activity per se” value [1] was “none of the compounds showed antibacterial activity per se”. The IC50 [1, 4] was 62.5 µM, the IC90 [1, 5] was > 250 µM and the “Average percentage of cell viability (±standard deviation)” value [2] was 106.63 ± 2.87%. For the same molecule, the “Average percentage of cell viability (±standard deviation)” value [2, 6] was 102.92 ± 7.31%, the “Average percentage of cell viability (±standard deviation)” value [2, 7] was 96.70 ± 1.60% and the “Average percentage of cell viability (±standard deviation)” value [2, 8] was 97.93 ± 2.17%. The “Average percentage of cell viability (±standard deviation)” value [2, 9] was 107.42 ± 0.01%, the “Average percentage of cell viability (±standard deviation)” value ([2]; 16HBE, 31.25 μM, 18 hours, MTT, vs untreated cells) was 113.17 ± 8.95% and the “Average percentage of cell viability (±standard deviation)” value [2, 10] was 100.48 ± 12.78%. For the same molecule, the “Average percentage of cell viability (±standard deviation)” value [2, 11] was 85.01 ± 2.40%.
For `C[C@]12C=C[C@@]3(CCC4[C@@](C)(COC(=O)CCC(=O)O)CCC[C@@]4(C)C3CC1)C2` (stereo partly drawn) [FDS, ent-beyer-15-en-18-O-succinic acid], the IC50 [1, 3] was > 250 µM, the “inhibition of bacterial growth in the presence of colistin” value [1] was “able to inhibit bacterial growth in the presence of colistin” and the “antibacterial activity per se” value [1] was “none of the compounds showed antibacterial activity per se”. The IC50 [1, 4] was 31.2 µM, the IC90 [1, 5] was > 250 µM and the “Average percentage of cell viability (±standard deviation)” value [2] was 102.95 ± 6.74%. The “Average percentage of cell viability (±standard deviation)” value [2, 6] was 98.93 ± 5.38%, the “Average percentage of cell viability (±standard deviation)” value [2, 7] was 95.34 ± 8.28% and the “Average percentage of cell viability (±standard deviation)” value [2, 8] was 93.53 ± 2.01%. For the same molecule, the “Average percentage of cell viability (±standard deviation)” value [2, 9] was 99.77 ± 6.58%, the “Average percentage of cell viability (±standard deviation)” value [2, 12] was 102.15 ± 3.15% and the “Average percentage of cell viability (±standard deviation)” value [2, 10] was 105.88 ± 1.31%. The “Average percentage of cell viability (±standard deviation)” value [2, 11] was 86.12 ± 3.18%.
In the case of `C=C1C[C@@]23CCC4[C@@](C)(CCC[C@@]4(C)C(=O)O)C2CC[C@]1(O)C3` (stereo partly shown) [SR5, 13-hydroxy-kaur-16-en-19-oic acid], the IC50 [1, 3] is reported as > 250 µM, the IC50 [1, 4] is reported as > 250 µM and the IC90 [1, 5] is reported as > 250 µM.
With `C[C@@]12CCC3[C@@](CCC4[C@](C)(COC(=O)C(=O)O)CCC[C@]43C)(CC1)C2` (stereo partly drawn) [SR8, ent-beyeran-19-O-oxalic acid] the IC50 [1, 3] was > 250 µM, the IC90 [1, 5] was > 250 µM and the “Average percentage of cell viability (±standard deviation)” value [2] was 90.55 ± 4.17%. The “Average percentage of cell viability (±standard deviation)” value [2, 6] was 100.17 ± 14.21%, the “Average percentage of cell viability (±standard deviation)” value [2, 7] was 97.84 ± 10.19% and the “Average percentage of cell viability (±standard deviation)” value [2, 8] was 90.33 ± 4.26%. The “Average percentage of cell viability (±standard deviation)” value [2, 9] was 92.64 ± 6.57%, the “Average percentage of cell viability (±standard deviation)” value [2, 12] was 85.68 ± 6.99% and the “Average percentage of cell viability (±standard deviation)” value [2, 10] was 78.02 ± 7.46%. For the same molecule, the “Average percentage of cell viability (±standard deviation)” value [2, 11] was 80.16 ± 2.01%.
For `C[C@@]12CCC3[C@@](CCC4[C@](C)(CO)CCC[C@]43C)(CC1)C2` (stereo partly drawn) [SR9, ent-beyeran-19-ol], the IC50 [1, 3] was > 250 µM, the IC50 [1, 4] was > 250 µM and the IC90 [1, 5] was > 250 µM.
